Experiments:
Assay in all cases: NCI SRB growth inhibition (single dose 10 µM / five-dose)
Type in all cases: cell-based, human
786–0 = conditions: Homo sapiens
Method: (§1) Screening of cytotoxic activity against a panel of sixty human tumor cell lines The selected compounds by NCI were evaluated for their anticancer activity in a two- stage process. […] Then, the output from the single dose screen is reported as a mean graph. […] Assay protocol. […] For a typical screening experiment, cells are inoculated into 96 well microtiter plates in 100 µL at plating densities ranging from 5000 to 40,000 cells/well depending on the doubling time of individual cell lines. […] After 24 h, two plates of each cell line are fixed in situ with TCA, to represent a measurement of the cell population for each cell line at the time of drug addition (Tz). The experimental drugs are solubilized in dimethyl sulfoxide at 400-fold the desired final maximum test concentration and stored frozen prior to use. At the time of drug addition, an aliquot of frozen concentrate is thawed and diluted to twice the desired final maximum test concentration with complete medium containing 50 µg/mL gentamicin. Additional four, 10-fold or ½ log serial dilutions are made to provide a total of five drug concentrations plus control. Aliquots of 100 mL of these different drug dilutions are added to the appropriate microtiter wells already containing […] of medium, resulting in the required final drug concentrations. […] For adherent cells, the assay is terminated by the addition of cold TCA. […] The supernatant is discarded, and the plates are washed five times with tap water and air dried. Sulforhodamine B (SRB) solution ([…]) at 0.4% (w/v) in 1% acetic acid is added to each well, and plates are incubated for 10 min at room temperature. After staining, unbound dye is removed by washing five times with 1% acetic acid and the plates are air dried. […] Using the seven absorbance measurements [time zero, (Tz), control growth, (C), and test growth in the presence of drug at the five concentration levels (Ti)], the percentage growth is calculated at each of the drug concentrations levels. Percentage growth inhibition is calculated as: [(Ti Tz)/(C–Tz)] x 100 for concentrations for which Ti>/=Tz and [(Ti-Tz)/Tz] x 100 for concentrations for which Ti < Tz. Three dose response parameters are calculated for each experimental agent. […] The drug concentration resulting in total growth inhibition (TGI) is calculated from Ti = Tz. […] Values are calculated for each of these three parameters if the level of activity is reached; however, if the effect is not reached or is exceeded, the value for that parameter is expressed as greater or less than the maximum or minimum concentration tested.

ACHN = conditions: Homo sapiens
Method: as §1

BT-549 = conditions: Homo sapiens
Method: as §1

COLO 205 = conditions: Homo sapiens; COLO 205, Colon cancer; five-dose
Method: as §1

EKVX = conditions: Homo sapiens
Method: as §1

HOP-62 = conditions: Homo sapiens; HOP-62, Non-small cell lung cancer; five-dose
Method: as §1

HT29 = conditions: Homo sapiens, HT-29
Method: as §1

IGROV1 = conditions: Homo sapiens, IGROV-1
Method: as §1

K-562 = conditions: Homo sapiens, K562
Method: as §1

KM12 = conditions: Homo sapiens
Method: as §1

MDA-MB-231/ATCC = conditions: Homo sapiens
Method: as §1

MDA-MB-468 = conditions: Homo sapiens
Method: as §1

NCI-H226 = conditions: Homo sapiens
Method: as §1

NCI-H23 = conditions: Homo sapiens
Method: as §1

NCI-H522 = conditions: Homo sapiens
Method: as §1

NCI/ADR-RES = conditions: Homo sapiens
Method: as §1

RPMI-8226 = conditions: Homo sapiens
Method: as §1

SF-268 = conditions: Homo sapiens
Method: as §1

SK-MEL-2 = conditions: Homo sapiens
Method: as §1

SK-MEL-5 = conditions: Homo sapiens
Method: as §1

SN12C = conditions: Homo sapiens
Method: as §1

SNB-19 = conditions: Homo sapiens
Method: as §1

SNB-75 = conditions: Homo sapiens; SNB-75 (CNS cancer), 10 µM; read-out: GI%
Method: as §1

SR = conditions: Homo sapiens
Method: as §1

TK-10 = conditions: Homo sapiens
Method: as §1

UACC-257 = conditions: Homo sapiens
Method: as §1

COc1cccc(C=NNC(=O)c2ccc3[nH]c(-c4ccccc4)nc3c2)c1O [8d, N'-(2-hydroxy-3-methoxybenzylidene)-2-phenyl-1H-benzo[d]imidazole-5-carbohydrazide]
inhibition at 10 µM (786–0; 786–0 (Renal cancer), 10 µM, read-out: GI%): 86%
GI50 (786–0; 786–0, Renal cancer, five-dose): 2470 nM
inhibition at 10 µM (ACHN; ACHN (Renal cancer), 10 µM, read-out: GI%): 83.3%
GI50 (ACHN; ACHN, Renal cancer, five-dose): 2280 nM
inhibition at 10 µM (BT-549; BT-549 (Breast cancer), 10 µM, read-out: GI%): 96.6%
GI50 (BT-549; BT-549, Breast cancer, five-dose): 1520 nM
GI50 (COLO 205): 2340 nM
inhibition at 10 µM (EKVX; EKVX (Non-small cell lung cancer), 10 µM, read-out: GI%): 87.6%
GI50 (EKVX; EKVX, Non-small cell lung cancer, five-dose): 1860 nM
GI50 (HOP-62): 1650 nM
inhibition at 10 µM (HT29; HT29 (Colon cancer), 10 µM, read-out: GI%): 84.5%
GI50 (HT29; HT29, Colon cancer, five-dose): 3410 nM
inhibition at 10 µM (IGROV1; IGROV1 (Ovarian cancer), 10 µM, read-out: GI%): 79.9%
GI50 (IGROV1; IGROV1, Ovarian cancer, five-dose): 2340 nM
inhibition at 10 µM (K-562; K-562 (Leukemia), 10 µM, read-out: GI%): 60.9%
GI50 (K-562; K-562, Leukemia, five-dose): 2040 nM
inhibition at 10 µM (KM12; KM12 (Colon cancer), 10 µM, read-out: GI%): > 100%
GI50 (KM12; KM12, Colon cancer, five-dose): 2580 nM
inhibition at 10 µM (MDA-MB-231/ATCC; MDA-MB-231/ATCC (Breast cancer), 10 µM, read-out: GI%): 94.4%
GI50 (MDA-MB-231/ATCC; MDA-MB-231/ATCC, Breast cancer, five-dose): 2410 nM
inhibition at 10 µM (MDA-MB-468; MDA-MB-468 (Breast cancer), 10 µM, read-out: GI%): > 100%
GI50 (MDA-MB-468; MDA-MB-468, Breast cancer, five-dose): 890 nM
inhibition at 10 µM (NCI-H226; NCI-H226 (Non-small cell lung cancer), 10 µM, read-out: GI%): > 100%
GI50 (NCI-H226; NCI-H226, Non-small cell lung cancer, five-dose): 530 nM
inhibition at 10 µM (NCI-H23; NCI-H23 (Non-small cell lung cancer), 10 µM, read-out: GI%): > 100%
GI50 (NCI-H23; NCI-H23, Non-small cell lung cancer, five-dose): 1870 nM
inhibition at 10 µM (NCI-H522; NCI-H522 (Non-small cell lung cancer), 10 µM, read-out: GI%): > 100%
GI50 (NCI-H522; NCI-H522, Non-small cell lung cancer, five-dose): 1970 nM
inhibition at 10 µM (NCI/ADR-RES; NCI/ADR-RES (Ovarian cancer), 10 µM, read-out: GI%): 48%
GI50 (NCI/ADR-RES; NCI/ADR-RES, Ovarian cancer, five-dose): 4650 nM
inhibition at 10 µM (RPMI-8226; RPMI-8226 (Leukemia), 10 µM, read-out: GI%): 98.5%
GI50 (RPMI-8226; RPMI-8226, Leukemia, five-dose): 1860 nM
inhibition at 10 µM (SF-268; SF-268 (CNS cancer), 10 µM, read-out: GI%): 99%
GI50 (SF-268; SF-268, CNS cancer, five-dose): 1760 nM
inhibition at 10 µM (SK-MEL-2; SK-MEL-2 (Melanoma), 10 µM, read-out: GI%): 34.3%
GI50 (SK-MEL-2; SK-MEL-2, Melanoma, five-dose): 1640 nM
inhibition at 10 µM (SK-MEL-5; SK-MEL-5 (Melanoma), 10 µM, read-out: GI%): > 100%
GI50 (SK-MEL-5; SK-MEL-5, Melanoma, five-dose): 1400 nM
inhibition at 10 µM (SN12C; SN12C (Renal cancer), 10 µM, read-out: GI%): 91.5%
GI50 (SN12C; SN12C, Renal cancer, five-dose): 2080 nM
inhibition at 10 µM (SNB-19; SNB-19 (CNS cancer), 10 µM, read-out: GI%): 90.4%
GI50 (SNB-19; SNB-19, CNS cancer, five-dose): 2410 nM
inhibition at 10 µM (SNB-75): 99.2%
inhibition at 10 µM (SR; SR (Leukemia), 10 µM, read-out: GI%): 77%
GI50 (SR; SR, Leukemia, five-dose): 1800 nM
inhibition at 10 µM (TK-10; TK-10 (Renal cancer), 10 µM, read-out: GI%): 50.6%
GI50 (TK-10; TK-10, Renal cancer, five-dose): 4780 nM
inhibition at 10 µM (UACC-257; UACC-257 (Melanoma), 10 µM, read-out: GI%): > 100%
GI50 (UACC-257; UACC-257, Melanoma, five-dose): 2340 nM

Source: PMC10893631, “Receptor-based pharmacophore modeling, molecular docking, synthesis and biological evaluation of novel VEGFR-2, FGFR-1, and BRAF multi-kinase inhibitors” (BMC Chemistry, 2024)
